The nature of this data set: Solid-state stability of olanzapine acetate under normal conditions. It counts as physicochemical. An excerpt: The olanzapine acetate in solid state is a particulate material, with no or minimal tendency of reversible absorption of water from the environment, and with good handling properties.

SMILES strings stand for the structures.

Regarding `Cc1cc2c(s1)Nc1ccccc1N=C2N1CCN(C)CC1` [olanzapine acetate], the “stability under normal conditions of temperature and moisture” value is recorded as “sufficiently stable”.

The record behind these values is patent US20050272720A1 (priority 2004, published 2005).
